The test system of one data set is MRE constructs. The data set can be described thus: Transient transfection of LUC reporter constructs in zebrafish ZEM2S cells, MRE constructs. It is filed as cell-based.
For a further data set, the system named is AHRE reporter constructs. The data set can be described thus: Transient transfection of LUC reporter constructs in zebrafish ZEM2S cells, AHRE constructs. The format is cell-based.
The conditions of data set [1]: cited from earlier work.
Another data set deals with EPRE constructs. The data set can be described thus: Transient transfection of LUC reporter constructs in zebrafish ZEM2S cells, EPRE constructs. It is filed as cell-based.

`[Cl][Cd][Cl]` [CdCl2]: in the data set with MRE constructs, the “concentration achieving maximal LUC activity” value worked out at 30 µM.

On to `Clc1cc2c(cc1Cl)Oc1cc(Cl)c(Cl)cc1O2` [TCDD, 2,3,7,8-tetrachlorodibenzo-p-dioxin], for which the “concentration achieving maximal LUC activity” value in the data set with AHRE reporter constructs is 10 nM. Also, in data set [1], the bioconcentration in fish is on record as 100,000 fold. In addition, the bioconcentration in data set [1] (fish, in the food chain) was > 100,000 times.

Consider `CC(C)(C)c1cc(O)ccc1O` [tBHQ], for which the “concentration achieving maximal LUC activity” value in the data set on EPRE constructs was 10 µM.
